Patent publication USRE39591E1, “6-O-substituted ketolides having antibacterial activity” (Abbott Laboratories, priority 1996, dated 2007)
Values after ≈ are worked out from the molar mass of the structure shown.

System: up to 32 different microorganisms
Assay: in vitro antibacterial activity (MIC), agar dilution on Brain Heart Infusion (BHI) agar with Steers replicator
Assay type: cell-based
Settings: unit assumed
Procedure: Representative compounds of the present invention were assayed in vitro for antibacterial activity as follows: Twelve petri dishes containing successive aqueous dilutions of the test compound mixed with 10 mL of sterilized Brain Heart Infusion (BHI) agar (Difco 0148-01-5) were prepared. Each plate was inoculated with 1:100 (or 1:10 for slow-growing strains, such as Micrococcus and Streptococcus) dilutions of up to 32 different microorganisms, using a Steers replicator block. The inoculated plates were incubated at 35°-37° C. for 20 to 24 hours. In addition, a control plate, using BHI agar containing no test compound, was prepared and incubated at the beginning and end of each test.
An additional plate containing a compound having known susceptibility patterns for the organisms being tested and belonging to the same antibiotic class as the test compound was also prepared and incubated as a further control, as well as to provide test-to-test comparability. Erythromycin A was used for this purpose.
After incubation, each plate was visually inspected. The minimum inhibitory concentration (MIC) was defined as the lowest concentration of drug yielding no growth, a slight haze, or sparsely isolated colonies on the inoculum spot as compared to the growth control.

[1] = Candida albicans CCH 442 (code TT)
[2] = Enterococcus faecism ATCC 8043 (code II)
[3] = Escherichia coli DC-2 (code SS)
[4] = Escherichia coli JUHL (code QQ)
[5] = Haemophilis influenzae DILL AMP R (code WW)
[6] = Micrococcus luteus ATCC 4698 (code PP)
[7] = Micrococcus luteus ATCC 9341 (code OO)
[8] = Mycobacterium smegmatis ATCC 114 (code UU)
[9] = Nocardia Asteroides ATCC9970 (code VV)
[10] = Staphylococcus aureus 1775 (code GG)
[11] = Staphylococcus aureus A5177 (code BB)
[12] = Staphylococcus aureus A-5278 (code CC)
[13] = Staphylococcus aureus ATCC 6538P (code AA)
[14] = Staphylococcus aureus CMX 553 (code FF)
[15] = Staphylococcus aureus CMX 642A (code DD)
[16] = Staphylococcus aureus NCTC10649M (code EE)
[17] = Staphylococcus epidermidis 3519 (code HH)
[18] = Streptococcus Pneumonia 5649 (code ZZA)
[19] = Streptococcus Pneumonia 5979 (code ZZ)
[20] = Streptococcus Pneumonia ATCC6303 (code XX)
[21] = Streptococcus Pneumonia GYR 1171 (code YY)
[22] = Streptococcus agalactiae CMX 508 (code KK)
[23] = Streptococcus bovis A-5169 (code JJ)
[24] = Streptococcus pyogenes 930 (code MM)
[25] = Streptococcus pyogenes EES61 (code LL)
[26] = Streptococcus pyogenes PIU 2548 (code NN)

Compound: CCC1OC(=O)C(C)C(=O)C(C)C(OC2OC(C)CC(N(C)C)C2O)C(C)(OCC=Cc2cnc3ccc(OC)cc3c2)CC(C)C(=O)C(C)C2NC(=O)OC12C (centres unmarked) [Example 209, R is —CH2CH═CH-(6-methoxy-3-quinolyl)]
- MIC (organism code AA): 0.05 µg/mL (≈ 0.0628 µM)
- MIC (organism code CC): > 100 µg/mL
- MIC (organism code DD): 0.1 µg/mL (≈ 0.126 µM)
- MIC (organism code EE): 0.1 µg/mL (≈ 0.126 µM)
- MIC (organism code FF): 0.1 µg/mL (≈ 0.126 µM)
- MIC (organism code GG): > 100 µg/mL
- MIC (organism code HH): 0.1 µg/mL (≈ 0.126 µM)
- MIC (organism code II): 0.02 µg/mL (≈ 0.0251 µM)
- MIC (organism code JJ): 0.01 µg/mL (≈ 0.0126 µM)
- MIC (organism code KK): 0.01 µg/mL (≈ 0.0126 µM)
- MIC (organism code LL): 0.01 µg/mL (≈ 0.0126 µM)
- MIC (organism code MM): 3.1 µg/mL (≈ 3.89 µM)
- MIC (organism code NN): 0.1 µg/mL (≈ 0.126 µM)
- MIC (organism code OO): 0.01 µg/mL (≈ 0.0126 µM)
- MIC (organism code PP): 0.2 µg/mL (≈ 0.251 µM)
- MIC (organism code QQ): 100 µg/mL (≈ 126 µM)
- MIC (organism code RR): 0.2 µg/mL (≈ 0.251 µM)
- MIC (organism code SS): > 100 µg/mL
- MIC (organism code TT): > 100 µg/mL
- MIC (organism code UU): 0.78 µg/mL (≈ 0.98 µM)
- MIC (organism code VV): 0.02 µg/mL (≈ 0.0251 µM)
- MIC (organism code WW): 2 µg/mL (≈ 2.51 µM)
- MIC (organism code XX): 0.03 µg/mL (≈ 0.0377 µM)
- MIC (organism code YY): 0.03 µg/mL (≈ 0.0377 µM)
- MIC (organism code ZZ): 4 µg/mL (≈ 5.03 µM)
- MIC (organism code ZZA): 0.5 µg/mL (≈ 0.628 µM)

Compound: C=CCO[C@@]1(C)C[C@@H](C)C(=O)[C@H](C)[C@H]2NC(=O)O[C@]2(C)[C@@H](CC)OC(=O)[C@H](C)C(=O)[C@H](C)[C@H]1O[C@@H]1O[C@H](C)C[C@H](N(C)C)[C@H]1O [Example 102, Formula (IX): L is CO, T is NH, R is —CH2CH═CH2]
- MIC [1]: > 100 µg/mL
- MIC [2]: 0.78 µg/mL
- MIC [3]: > 100 µg/mL
- MIC [4]: > 100 µg/mL
- MIC (Escherichia coli SS (code RR)): 1.56 µg/mL
- MIC [5]: 64 µg/mL
- MIC [6]: 0.78 µg/mL
- MIC [7]: 0.2 µg/mL
- MIC [8]: 25 µg/mL
- MIC [9]: 1.56 µg/mL
- MIC [10]: > 100 µg/mL
- MIC [11]: 1.56 µg/mL
- MIC [12]: > 100 µg/mL
- MIC [13]: 0.78 µg/mL
- MIC [14]: 1.56 µg/mL
- MIC [15]: 1.56 µg/mL
- MIC [16]: 0.78 µg/mL
- MIC [17]: 1.56 µg/mL
- MIC [18]: 0.25 µg/mL
- MIC [19]: > 64 µg/mL
- MIC [20]: 0.5 µg/mL
- MIC [21]: 0.25 µg/mL
- MIC [22]: 0.2 µg/mL
- MIC [23]: 0.2 µg/mL
- MIC [24]: > 100 µg/mL
- MIC [25]: 0.2 µg/mL
- MIC [26]: 0.2 µg/mL

Compound: CC[C@H]1OC(=O)[C@H](C)C(=O)[C@H](C)[C@@H](O[C@@H]2O[C@H](C)C[C@H](N(C)C)[C@H]2O)[C@@](C)(OCC=Cc2ccc(OC)cc2)C[C@@H](C)C(=O)[C@H](C)[C@@H](O)[C@]1(C)O [Example 16, Compound of Formula (VIII): X is O, R is —CH2CH═CH-(4-methoxyphenyl)]
- MIC [1]: > 100 µg/mL
- MIC [2]: 0.78 µg/mL
- MIC [3]: > 100 µg/mL
- MIC [4]: > 100 µg/mL
- MIC (Escherichia coli SS (code RR)): 6.2 µg/mL
- MIC [5]: 128 µg/mL
- MIC [6]: 0.78 µg/mL
- MIC [7]: 0.2 µg/mL
- MIC [8]: 3.2 µg/mL
- MIC [9]: 1.56 µg/mL
- MIC [10]: > 100 µg/mL
- MIC [11]: 1.56 µg/mL
- MIC [12]: > 100 µg/mL
- MIC [13]: 1.56 µg/mL
- MIC [14]: 1.56 µg/mL
- MIC [15]: 1.56 µg/mL
- MIC [16]: 1.56 µg/mL
- MIC [17]: 1.56 µg/mL
- MIC [18]: 2 µg/mL
- MIC [19]: 128 µg/mL
- MIC [20]: 1 µg/mL
- MIC [21]: 0.25 µg/mL
- MIC [22]: 0.39 µg/mL
- MIC [23]: 0.2 µg/mL
- MIC [24]: > 100 µg/mL
- MIC [25]: 0.39 µg/mL
- MIC [26]: 0.78 µg/mL

Compound: CCC1OC(=O)C(C)C(=O)C(C)C(OC2OC(C)CC(N(C)C)C2O)C(C)(OCC=Cc2cn(C)c(=O)n(C)c2=O)CC(C)C(=O)C(C)C2NC(=O)OC12C (centres unmarked) [Example 293, Compound of Formula (IX): L is CO, T is NH, R is —CH2—CH═CH-(1,3-dimethyl-2,4-dioxo-5-pyrimidinyl)]
- MIC (organism code AA): 0.39 µg/mL
- MIC (organism code BB): 0.39 µg/mL
- MIC (organism code CC): > 100 µg/mL
- MIC (organism code DD): 0.39 µg/mL
- MIC (organism code EE): 0.39 µg/mL
- MIC (organism code FF): 0.39 µg/mL
- MIC (organism code GG): > 100 µg/mL
- MIC (organism code HH): 0.39 µg/mL
- MIC (organism code II): 0.1 µg/mL
- MIC (organism code JJ): 0.02 µg/mL
- MIC (organism code KK): 0.05 µg/mL
- MIC (organism code LL): 0.02 µg/mL
- MIC (organism code MM): > 100 µg/mL
- MIC (organism code NN): 0.78 µg/mL
- MIC (organism code OO): 0.05 µg/mL
- MIC (organism code PP): 0.2 µg/mL
- MIC (organism code QQ): > 100 µg/mL
- MIC (organism code RR): 0.78 µg/mL
- MIC (organism code SS): > 100 µg/mL
- MIC (organism code TT): > 100 µg/mL
- MIC (organism code UU): 12.5 µg/mL
- MIC (organism code VV): 0.78 µg/mL
- MIC (organism code WW): 16 µg/mL
- MIC (organism code XX): 0.03 µg/mL
- MIC (organism code YY): 0.03 µg/mL
- MIC (organism code ZZ): > 128 µg/mL
- MIC (organism code ZZA): 0.5 µg/mL
